Source: ChEMBL document CHEMBL1155124, “Synthesis and activity of N-cyanoguanidine-piperazine P2X7 antagonists” (Bioorg Med Chem Lett, 2008)
≈ marks a conversion by molar mass, not a printed value. Calls of active or inactive are those of the source. The calls are words filed in the database; no cut-off is given here.

Assays:
P2X purinoceptor 7 [1] = molecular target: T1, P2X purinoceptor 7 (Homo sapiens, UniProt Q99572); assay: Antagonist activity at human recombinant P2X7 receptor assessed as inhibition of BzATP induced calcium flux by FLIPR assay; format: functional
T1 sequence (Q99572 whole entry): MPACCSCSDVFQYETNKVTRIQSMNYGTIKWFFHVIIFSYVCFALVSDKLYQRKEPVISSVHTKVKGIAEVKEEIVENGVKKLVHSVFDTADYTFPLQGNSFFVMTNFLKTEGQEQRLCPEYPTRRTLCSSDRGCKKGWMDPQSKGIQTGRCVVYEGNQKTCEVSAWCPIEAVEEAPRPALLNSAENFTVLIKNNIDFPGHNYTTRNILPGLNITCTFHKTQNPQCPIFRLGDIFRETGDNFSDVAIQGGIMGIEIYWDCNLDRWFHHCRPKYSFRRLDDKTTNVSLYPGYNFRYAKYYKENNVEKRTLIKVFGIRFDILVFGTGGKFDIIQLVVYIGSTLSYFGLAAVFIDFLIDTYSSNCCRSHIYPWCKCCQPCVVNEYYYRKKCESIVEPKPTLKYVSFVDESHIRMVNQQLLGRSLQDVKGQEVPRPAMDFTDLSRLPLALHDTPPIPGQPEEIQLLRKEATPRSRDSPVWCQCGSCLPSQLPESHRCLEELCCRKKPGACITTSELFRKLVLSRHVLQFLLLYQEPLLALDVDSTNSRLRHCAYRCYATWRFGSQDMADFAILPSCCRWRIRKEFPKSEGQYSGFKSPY

P2X purinoceptor 7 [2] = molecular target: T2, P2X purinoceptor 7 (Rattus norvegicus, UniProt Q64663); assay: Antagonist activity at rat recombinant P2X7 receptor assessed as inhibition of BzATP induced calcium flux by FLIPR assay; format: functional
T2 sequence (Q64663 whole entry): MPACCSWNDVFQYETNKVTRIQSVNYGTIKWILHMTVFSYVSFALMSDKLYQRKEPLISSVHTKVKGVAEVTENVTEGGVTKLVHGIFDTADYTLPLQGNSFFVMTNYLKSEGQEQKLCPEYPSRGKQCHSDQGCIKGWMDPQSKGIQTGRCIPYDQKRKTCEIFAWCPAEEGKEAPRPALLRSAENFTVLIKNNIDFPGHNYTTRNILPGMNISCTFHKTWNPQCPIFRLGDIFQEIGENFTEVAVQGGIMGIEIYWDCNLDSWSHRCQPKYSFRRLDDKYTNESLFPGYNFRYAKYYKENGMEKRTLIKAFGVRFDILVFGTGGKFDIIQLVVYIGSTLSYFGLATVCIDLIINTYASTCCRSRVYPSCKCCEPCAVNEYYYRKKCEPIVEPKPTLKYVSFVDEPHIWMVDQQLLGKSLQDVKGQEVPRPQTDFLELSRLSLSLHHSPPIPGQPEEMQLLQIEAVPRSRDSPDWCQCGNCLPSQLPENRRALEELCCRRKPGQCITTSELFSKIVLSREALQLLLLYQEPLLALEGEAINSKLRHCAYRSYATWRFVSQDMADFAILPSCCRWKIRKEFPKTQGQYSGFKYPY

[3] = Metabolic stability in rat liver microsomes assessed as compound remaining after 1 hr; format: ADME, Microsome; details: read-out: Stability
Blood [4] = assay: Inhibition of IL1-beta release in LPS/ATP stimulated human whole blood; format: functional, tissue-based
[5] = Plasma clearance in rat at 5 mg/kg, iv; format: ADME, organism-based; design: dose 5 mg/kg, route intravenous
[6] = Metabolic stability in rat liver microsomes assessed as compound remaining after 25 mins; format: ADME, Microsome; details: read-out: Stability
[7] = molecular target: P2X2/P2X3 heterotrimeric receptor (Homo sapiens) (UniProt Q9UBL9+P56373); assay: Antagonist activity at P2X2/3 receptor at 10 uM; format: functional
[8] = molecular target: T3, P2X purinoceptor 3 (Homo sapiens) (UniProt P56373); assay: Antagonist activity at P2X3 receptor at 10 uM; format: functional
T3 sequence (whole entry): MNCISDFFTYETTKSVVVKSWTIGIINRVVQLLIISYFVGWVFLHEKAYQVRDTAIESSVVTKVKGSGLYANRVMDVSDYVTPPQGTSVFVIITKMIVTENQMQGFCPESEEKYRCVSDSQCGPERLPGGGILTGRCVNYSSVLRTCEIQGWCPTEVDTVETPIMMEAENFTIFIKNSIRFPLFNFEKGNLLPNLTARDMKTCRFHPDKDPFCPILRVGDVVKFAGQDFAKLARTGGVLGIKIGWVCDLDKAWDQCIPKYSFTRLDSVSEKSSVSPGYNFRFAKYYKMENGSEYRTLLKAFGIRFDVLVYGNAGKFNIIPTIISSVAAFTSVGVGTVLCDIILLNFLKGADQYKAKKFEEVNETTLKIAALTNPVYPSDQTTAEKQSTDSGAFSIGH

[9] = molecular target: T4, P2X purinoceptor 4 (Homo sapiens) (UniProt Q99571); assay: Antagonist activity at P2X4 receptor at 10 uM; format: functional
T4 sequence (whole entry): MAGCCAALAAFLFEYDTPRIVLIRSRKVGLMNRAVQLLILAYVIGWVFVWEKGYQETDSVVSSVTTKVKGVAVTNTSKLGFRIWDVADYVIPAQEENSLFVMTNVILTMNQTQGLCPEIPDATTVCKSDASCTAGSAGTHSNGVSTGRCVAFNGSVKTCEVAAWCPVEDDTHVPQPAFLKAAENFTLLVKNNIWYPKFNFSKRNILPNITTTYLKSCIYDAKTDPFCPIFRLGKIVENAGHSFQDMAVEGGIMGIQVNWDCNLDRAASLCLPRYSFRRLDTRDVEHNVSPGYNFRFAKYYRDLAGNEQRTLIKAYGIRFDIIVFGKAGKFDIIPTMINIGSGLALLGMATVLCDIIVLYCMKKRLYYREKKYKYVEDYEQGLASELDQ

[10] = molecular target: P2Y purinoceptor 2 (Homo sapiens) (UniProt P41231); assay: Antagonist activity at P2Y2 receptor at 10 uM; format: functional
Chain of P2Y purinoceptor 2 (Homo sapiens) (P41231 whole entry): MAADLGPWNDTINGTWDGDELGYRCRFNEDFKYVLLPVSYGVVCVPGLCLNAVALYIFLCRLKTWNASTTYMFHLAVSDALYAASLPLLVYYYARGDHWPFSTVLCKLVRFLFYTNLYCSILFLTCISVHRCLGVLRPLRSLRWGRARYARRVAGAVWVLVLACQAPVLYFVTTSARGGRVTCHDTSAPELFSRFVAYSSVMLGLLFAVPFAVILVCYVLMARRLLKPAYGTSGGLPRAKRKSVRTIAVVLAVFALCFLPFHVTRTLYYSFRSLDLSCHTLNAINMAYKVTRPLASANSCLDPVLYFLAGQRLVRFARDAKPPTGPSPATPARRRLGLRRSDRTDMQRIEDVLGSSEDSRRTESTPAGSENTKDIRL

[11] = Volume of distribution at steady state in rat at 5 mg/kg, iv; format: ADME, organism-based; design: dose 5 mg/kg, route intravenous; details: in vivo, read-out: Vdss
[12] = Half life in rat at 5 mg/kg, iv; format: ADME, organism-based; design: dose 5 mg/kg, route intravenous; details: in vivo
[13] = Oral bioavailability in rat; format: ADME, organism-based; details: in vivo
[14] = Aqueous solubility of the compound; format: physicochemical; details: buffer
Blood [15] = assay: Inhibition of IL18 release in LPS/ATP stimulated human whole blood; format: functional, tissue-based

IC50 (P2X purinoceptor 7 [1]) [µM]	IC50 (P2X purinoceptor 7 [2]) [µM]	IC50 (Blood [4]) [µM]	Structure (SMILES)	other results
–	–	2.64	CC(C)C1CN(C(=O)Nc2ccc(Cl)cc2)CCN1/C(=N/C#N)Nc1cccc2nc(F)ccc12 (configuration not stated)	remaining at 1 h [3]: 60%
0.06	0.125	–	Cc1ccccc1N=C(NC#N)N1CCN(C(=O)Nc2ccc(Cl)cc2)CC1C(C)C (configuration not stated)	–
0.067	0.093	0.88	CC(C)C1CN(C(=Nc2cccc3ncccc23)NC#N)CCN1C(=O)Nc1ccc(Cl)cc1 (configuration not stated)	–
0.045	0.11	0.47	CC(C)C1CN(C(=O)Nc2ccc(Cl)cc2)CCN1/C(=N/C#N)Nc1cccc2[nH]ccc12 (configuration not stated)	–
0.04	0.057	0.121	CC(C)C1CN(C(=O)Nc2ccc(Cl)cc2)CCN1C(=Nc1cccc2ncccc12)NC#N (configuration not stated)	clearance [5]: 53.3 mL/min/kg; remaining at 25 min [6]: 43%; remaining at 1 h [3]: 43%
0.25	–	1.59	CC(C)C1CN(C(=O)Nc2cccc(F)c2)CCN1C(=Nc1cccc2[nH]ncc12)NC#N (configuration not stated)	–
0.112	0.11	0.98	Cc1ccccc1N/C(=N\C#N)N1CCN(C(=O)Nc2ccc(Cl)cc2)C(C(C)C)C1 (configuration not stated)	–
0.11	0.18	0.21	CC(C)C1CN(C(=O)Nc2ccc(Cl)cc2)CCN1C(=Nc1cccc2c1CCNC2)NC#N (configuration not stated)	–
24.9	–	–	CC(C)C1CN(C(=O)Nc2cccc(F)c2)CCN1C(=Nc1cccc2occc12)NC#N (configuration not stated)	–
0.06	–	0.46	CC(C)C1CN(C(=O)Nc2cccc(F)c2)CCN1C(=Nc1cccc2c1CCCN2)NC#N (configuration not stated)	–
–	–	0.12	Cc1ccc2c(N/C(=N\C#N)N3CCN(C(=O)Nc4ccc(Cl)cc4)CC3C(C)C)cccc2n1 (configuration not stated)	Activity [7]: inactive; Activity [8]: inactive; Activity [9]: inactive; Activity [10]: inactive
0.093	0.151	–	Cc1ccc2c(N=C(NC#N)N3CCN(C(=O)Nc4ccc(Cl)cc4)CC3C(C)C)cccc2n1 (configuration not stated)	Vd [11]: 11.8 L/kg; clearance [5]: 23.3 mL/min/kg; half-life [12]: 4.4 h; remaining at 1 h [3]: 74%; bioavailability [13]: 5%; solubility [14]: 19 µg/mL (≈ 38.8 µM)
1.03	0.29	–	Cc1ccccc1N=C(NC#N)N1CCN(C(=O)N(C)c2ccc(Cl)cc2)C(c2ccccc2)C1 (configuration not stated)	–
0.132	0.095	1.19	Cc1ccccc1N=C(NC#N)N1CCN(C(=O)Nc2ccc(Cl)cc2)C(c2ccccc2)C1 (configuration not stated)	Vd [11]: 5.3 L/kg; clearance [5]: 68.3 mL/min/kg; half-life [12]: 0.9 h; IC50 (Blood [15]): 1.26 µM

Further lines, the compound ahead of its results:

Structure (SMILES)	IC50 (P2X purinoceptor 7 [1]) [µM]	IC50 (P2X purinoceptor 7 [2]) [µM]	IC50 (Blood [4]) [µM]	other results
CN(C)Cc1ccccc1N=C(NC#N)N1CCN(C(=O)Nc2ccc(Cl)cc2)C(c2ccccc2)C1 (configuration not stated)	0.48	1.07	–	–
Cc1ccccc1N=C(NC#N)N1CCN(Cc2ccc(Cl)cc2)C(c2ccccc2)C1 (configuration not stated)	> 10	> 10	–	–
N#C/N=C(\Nc1cccnc1)N1CCN(C(=O)Nc2ccc(Cl)cc2)C(c2ccccc2)C1 (configuration not stated)	1.33	2.04	–	–
Cc1ccccc1N/C(=N/C(N)=O)N1CCN(C(=O)Nc2ccc(Cl)cc2)C(c2ccccc2)C1 (configuration not stated)	6.4	10.3	–	–
Cc1ccccc1NC(=O)N1CCN(C(=O)Nc2ccc(Cl)cc2)C(c2ccccc2)C1 (configuration not stated)	0.78	0.62	–	–
COc1ccc(CC(=O)N2CCN(C(=Nc3ccccc3C)NC#N)CC2c2ccccc2)cc1OC (configuration not stated)	0.63	–	–	–
Cn1cnc2c(N=C(NC#N)N3CCN(C(=O)Nc4ccc(Cl)cc4)C(c4ccccc4)C3)cccc21 (configuration not stated)	1.66	5.19	–	–
N#CNC(=Nc1cccc2[nH]ccc12)N1CCN(C(=O)Nc2ccc(Cl)cc2)C(c2ccccc2)C1 (configuration not stated)	0.13	0.056	12.2	–
Cc1ccc(N/C(=N\C#N)N2CCN(C(=O)Nc3ccc(Cl)cc3)CC2C(C)C)c2cccnc12 (configuration not stated)	–	–	–	remaining at 1 h [3]: 64%
Cc1ccccc1N=C(NC#N)N1CCN(S(=O)(=O)c2ccc(Cl)cc2)C(c2ccccc2)C1 (configuration not stated)	0.54	4.06	–	–
COc1ccc(NC(=O)N2CCN(C(=Nc3ccccc3C)NC#N)CC2c2ccccc2)cc1OC (configuration not stated)	0.025	0.178	–	–
Cc1ccccc1N/C(=C/[N+](=O)[O-])N1CCN(C(=O)Nc2ccc(Cl)cc2)C(c2ccccc2)C1 (configuration not stated)	0.31	3.11	–	–
